Numbers after ± are expanded uncertainties.
Key:
[1] = DTA
[2] = Molar enthalpy of transition or fusion; conditions: DSC

Compound	Triple point temperature ([1]; Crystal 1)	Triple point temperature ([1]; Crystal 2)	Triple point temperature ([1]; Crystal 3)	Molar enthalpy of transition or fusion ([2]; Crystal 1)	Molar enthalpy of transition or fusion ([2]; Crystal 2)	Molar enthalpy of transition or fusion ([2]; Crystal 3)
CC12CCC(CC1=O)C2(C)C (configuration not stated) [1,7,7-trimethylbicyclo[2.2.1]-2-heptanone]	448 ± 1.5 K	364 ± 5 K	206.1 ± 1.4 K	1.41 ± 0.0717 kcal/mol	0.0406 ± 0.0239 kcal/mol	0.311 ± 0.0717 kcal/mol
CC1(C)[C@@H]2CC[C@@]1(C)C(=O)C2 [d-camphor]	451.8 ± 1.4 K	370 ± 4 K	242.7 ± 1.4 K	1.51 ± 0.12 kcal/mol	0.0382 ± 0.0239 kcal/mol	2.68 ± 0.12 kcal/mol

From the NIST ThermoML archive (doi:10.1016/j.tca.2010.07.023)
